Data taken from PubChem BioAssay (NCI).
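Cultured in 96-well plates, cells were exposed to test compound for 48 hours across five concentrations. TGI marks complete inhibition of growth.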

Tests used:
Assay in all cases: NCI anticancer screen, dose series, 48 h
LXFL 529 NSCLC = tested on: LXFL 529 NSCLC
SF-268 CNS = tested on: SF-268 CNS
NCI-H460 lung = tested on: NCI-H460 lung
EKVX NSCLC = tested on: EKVX NSCLC
IGROV1 ovarian = tested on: IGROV1 ovarian
TK-10 renal = tested on: TK-10 renal
SNB-75 CNS = tested on: SNB-75 CNS
HOP-92 NSCLC = tested on: HOP-92 NSCLC
UO-31 renal = tested on: UO-31 renal
CCRF-CEM leukemia = tested on: CCRF-CEM leukemia
SK-MEL-2 melanoma = tested on: SK-MEL-2 melanoma
SW-620 colon = tested on: SW-620 colon
COLO 205 colon = tested on: COLO 205 colon
KM20L2 colon = tested on: KM20L2 colon
DMS 114 small cell lung = tested on: DMS 114 small cell lung
SF-539 CNS = tested on: SF-539 CNS
U251 CNS = tested on: U251 CNS
NCI-H23 lung = tested on: NCI-H23 lung
UACC-257 melanoma = tested on: UACC-257 melanoma
HCT-116 colon = tested on: HCT-116 colon
KM12 colon = tested on: KM12 colon
HL-60(TB) leukemia = tested on: HL-60(TB) leukemia
SNB-19 CNS = tested on: SNB-19 CNS
MOLT-4 leukemia = tested on: MOLT-4 leukemia
RXF 393 renal = tested on: RXF 393 renal
SF-295 CNS = tested on: SF-295 CNS
HT29 colon = tested on: HT29 colon
NCI-H522 lung = tested on: NCI-H522 lung
HOP-62 NSCLC = tested on: HOP-62 NSCLC
SK-MEL-28 melanoma = tested on: SK-MEL-28 melanoma
RPMI-8226 leukemia = tested on: RPMI-8226 leukemia
A549 NSCLC = tested on: A549 NSCLC
OVCAR-3 ovarian = tested on: OVCAR-3 ovarian
UACC-62 melanoma = tested on: UACC-62 melanoma
SR leukemia = tested on: SR leukemia
SK-OV-3 ovarian = tested on: SK-OV-3 ovarian
OVCAR-4 ovarian = tested on: OVCAR-4 ovarian
SN12C renal = tested on: SN12C renal
M14 melanoma = tested on: M14 melanoma
MALME-3M melanoma = tested on: MALME-3M melanoma
OVCAR-8 ovarian = tested on: OVCAR-8 ovarian
K-562 leukemia = tested on: K-562 leukemia
SK-MEL-5 melanoma = tested on: SK-MEL-5 melanoma
MDA-N = tested on: MDA-N
BT-549 breast = tested on: BT-549 breast
HCT-15 colon = tested on: HCT-15 colon
PC-3 prostate = tested on: PC-3 prostate
T-47D breast = tested on: T-47D breast
786-0 renal = tested on: 786-0 renal
HCC-2998 colon = tested on: HCC-2998 colon
NCI-H226 lung = tested on: NCI-H226 lung
MDA-MB-231 breast = tested on: MDA-MB-231 breast
DU-145 prostate = tested on: DU-145 prostate
NCI/ADR-RES ovarian = tested on: NCI/ADR-RES ovarian
OVCAR-5 ovarian = tested on: OVCAR-5 ovarian
CAKI-1 renal = tested on: CAKI-1 renal
MDA-MB-435 = tested on: MDA-MB-435
LOX IMVI melanoma = tested on: LOX IMVI melanoma
MCF7 breast = tested on: MCF7 breast
HS 578T breast = tested on: HS 578T breast
A498 renal = tested on: A498 renal
ACHN renal = tested on: ACHN renal

O=C(NN1C(=O)C(Cl)C1c1ccccc1O)c1ccccc1O (configuration not stated)
TGI (LXFL 529 NSCLC): > 100 µM
TGI (SF-268 CNS): > 100 µM
TGI (NCI-H460 lung): > 100 µM
TGI (EKVX NSCLC): > 100 µM
TGI (IGROV1 ovarian): > 100 µM
TGI (TK-10 renal): > 100 µM
TGI (SNB-75 CNS): > 100 µM
TGI (HOP-92 NSCLC): > 100 µM
TGI (UO-31 renal): 63.8 µM
TGI (CCRF-CEM leukemia): 70.6 µM
TGI (SK-MEL-2 melanoma): > 100 µM
TGI (SW-620 colon): > 100 µM
TGI (COLO 205 colon): > 100 µM
TGI (KM20L2 colon): > 100 µM
TGI (DMS 114 small cell lung): 55.2 µM
TGI (SF-539 CNS): 48.7 µM
TGI (U251 CNS): > 100 µM
TGI (NCI-H23 lung): > 100 µM
TGI (UACC-257 melanoma): > 100 µM
TGI (HCT-116 colon): > 100 µM
TGI (KM12 colon): > 100 µM
TGI (HL-60(TB) leukemia): 43.3 µM
TGI (SNB-19 CNS): 57.9 µM
TGI (MOLT-4 leukemia): > 100 µM
TGI (RXF 393 renal): > 100 µM
TGI (SF-295 CNS): > 100 µM
TGI (HT29 colon): > 100 µM
TGI (NCI-H522 lung): > 100 µM
TGI (HOP-62 NSCLC): > 100 µM
TGI (SK-MEL-28 melanoma): > 100 µM
TGI (RPMI-8226 leukemia): > 100 µM
TGI (A549 NSCLC): > 100 µM
TGI (OVCAR-3 ovarian): > 100 µM
TGI (UACC-62 melanoma): > 100 µM
TGI (SR leukemia): > 100 µM
TGI (SK-OV-3 ovarian): > 100 µM
TGI (OVCAR-4 ovarian): > 100 µM
TGI (SN12C renal): > 100 µM
TGI (M14 melanoma): > 100 µM
TGI (MALME-3M melanoma): > 100 µM
TGI (OVCAR-8 ovarian): > 100 µM
TGI (K-562 leukemia): > 100 µM
TGI (SK-MEL-5 melanoma): > 100 µM

NS(=O)(=O)c1ccc(NC(=O)N/N=C/c2ccccc2O)cc1
TGI (MDA-N): 70.2 µM
TGI (SF-268 CNS): > 100 µM
TGI (NCI-H460 lung): > 100 µM
TGI (BT-549 breast): > 100 µM
TGI (EKVX NSCLC): > 100 µM
TGI (IGROV1 ovarian): > 100 µM
TGI (TK-10 renal): > 100 µM
TGI (SNB-75 CNS): > 100 µM
TGI (HOP-92 NSCLC): > 100 µM
TGI (UO-31 renal): > 100 µM
TGI (HCT-15 colon): > 100 µM
TGI (PC-3 prostate): > 100 µM
TGI (CCRF-CEM leukemia): > 100 µM
TGI (SK-MEL-2 melanoma): > 100 µM
TGI (SW-620 colon): > 100 µM
TGI (T-47D breast): > 100 µM
TGI (COLO 205 colon): > 100 µM
TGI (SF-539 CNS): > 100 µM
TGI (786-0 renal): > 100 µM
TGI (U251 CNS): > 100 µM
TGI (NCI-H23 lung): > 100 µM
TGI (UACC-257 melanoma): > 100 µM
TGI (HCT-116 colon): > 100 µM
TGI (HCC-2998 colon): > 100 µM
TGI (KM12 colon): > 100 µM
TGI (HL-60(TB) leukemia): > 100 µM
TGI (SNB-19 CNS): > 100 µM
TGI (NCI-H226 lung): > 100 µM
TGI (MOLT-4 leukemia): > 100 µM
TGI (MDA-MB-231 breast): > 100 µM
TGI (DU-145 prostate): > 100 µM
TGI (RXF 393 renal): > 100 µM
TGI (SF-295 CNS): > 100 µM
TGI (HT29 colon): > 100 µM
TGI (NCI/ADR-RES ovarian): > 100 µM
TGI (OVCAR-5 ovarian): > 100 µM
TGI (NCI-H522 lung): > 100 µM
TGI (HOP-62 NSCLC): > 100 µM
TGI (CAKI-1 renal): > 100 µM
TGI (SK-MEL-28 melanoma): > 100 µM
TGI (RPMI-8226 leukemia): > 100 µM
TGI (A549 NSCLC): > 100 µM
TGI (MDA-MB-435): 55.6 µM
TGI (LOX IMVI melanoma): > 100 µM
TGI (OVCAR-3 ovarian): > 100 µM
TGI (UACC-62 melanoma): > 100 µM
TGI (SR leukemia): > 100 µM
TGI (SK-OV-3 ovarian): > 100 µM
TGI (MCF7 breast): > 100 µM
TGI (OVCAR-4 ovarian): > 100 µM
TGI (SN12C renal): > 100 µM
TGI (HS 578T breast): > 100 µM
TGI (M14 melanoma): > 100 µM
TGI (MALME-3M melanoma): > 100 µM
TGI (A498 renal): > 100 µM
TGI (OVCAR-8 ovarian): > 100 µM
TGI (ACHN renal): > 100 µM
TGI (K-562 leukemia): > 100 µM
TGI (SK-MEL-5 melanoma): > 100 µM
